PubChem BioAssay (NCI)
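1) Cells in 96-well plates. 2) Compound, 48 h, 5 concentrations. 3) Linear interpolation between surrounding doses. 4) Unreached endpoint = highest concentration. The concentration for 50% growth inhibition is given as GI50. TGI denotes the concentration required for complete inhibition of growth.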

Legend:
Assay in all cases: NCI tumour cell line growth inhibition, 48 h
COLO 205 colon = tested on: COLO 205 colon
HCT-116 colon = tested on: HCT-116 colon
HT29 colon = tested on: HT29 colon
SF-539 CNS = tested on: SF-539 CNS
SK-MEL-2 melanoma = tested on: SK-MEL-2 melanoma
SK-OV-3 ovarian = tested on: SK-OV-3 ovarian
SN12C renal = tested on: SN12C renal
SNB-19 CNS = tested on: SNB-19 CNS
SW-620 colon = tested on: SW-620 colon
NCI-H460 lung = tested on: NCI-H460 lung

Question: Which TGI (COLO 205 colon) does the source give for Nc1nc(N)c2ncn(-c3ccc(Cl)c(Cl)c3)c2n1 here?
Answer: 28.7 µM

Question: What about the TGI (HCT-116 colon) of the same compound?
Answer: 40.3 µM

Question: And the TGI (HT29 colon)?
Answer: 58.1 µM

Question: And the TGI (SF-539 CNS)?
Answer: 67.6 µM

Question: And the TGI (SK-MEL-2 melanoma)?
Answer: 28 µM

Question: And the TGI (SK-OV-3 ovarian)?
Answer: > 100 µM

Question: What about the TGI (SN12C renal) of the same compound?
Answer: 61.7 µM

Question: And the TGI (SNB-19 CNS)?
Answer: > 100 µM

Question: What about the TGI (SW-620 colon) of the same compound?
Answer: > 100 µM

Question: What does the source list for C=C1C(=O)OC2/C=C(\C)C(=O)CC3OC(C)(C)OC3(C)CC(OC(=O)/C(C)=C/C)C12 (stereo not given)?
Answer: TGI (COLO 205 colon): > 59.7 µM; TGI (HCT-116 colon): > 44.1 µM; TGI (HT29 colon): 37.2 µM; TGI (NCI-H460 lung): 46.2 µM; TGI (SF-539 CNS): 49.4 µM; TGI (SK-MEL-2 melanoma): 82.8 µM; TGI (SK-OV-3 ovarian): > 100 µM; TGI (SN12C renal): > 59.2 µM; TGI (SNB-19 CNS): > 100 µM; TGI (SW-620 colon): 98.7 µM

Question: With C=C(C)[C@@H]1CC[C@]2(C(=O)Nc3ccccn3)CC[C@]3(C)[C@H](CC[C@@H]4[C@@]5(C)CCCNC(C)(C)[C@@H]5CC[C@]43C)[C@@H]12 as the compound, how does the GI50 (NCI-H460 lung) read?
Answer: 1.71 µM

Question: And the TGI (NCI-H460 lung)?
Answer: 3.3 µM

Question: What about the GI50 (SK-OV-3 ovarian) of the same compound?
Answer: 2.94 µM

Question: What about the TGI (SK-OV-3 ovarian) of the same compound?
Answer: 14.1 µM

Question: And the GI50 (SN12C renal)?
Answer: 1.57 µM

Question: And the TGI (SN12C renal)?
Answer: 2.92 µM

Question: What about the GI50 (SNB-19 CNS) of the same compound?
Answer: 1.98 µM

Question: And the TGI (SNB-19 CNS)?
Answer: 4.26 µM

Question: And the GI50 (SW-620 colon)?
Answer: 1.75 µM

Question: And the TGI (SW-620 colon)?
Answer: 3.51 µM

Question: Which results are given for O=S(=O)(O)c1cc(N=Nc2cc(S(=O)(=O)O)c3ccccc3c2O)ccc1/C=C/c1ccc(N=Nc2cc(S(=O)(=O)O)c3ccccc3c2O)cc1S(=O)(=O)O?
Answer: TGI (COLO 205 colon): > 380 µM; TGI (HCT-116 colon): > 433 µM; TGI (HT29 colon): > 740 µM; TGI (NCI-H460 lung): > 881 µM; TGI (SF-539 CNS): > 667 µM; TGI (SK-MEL-2 melanoma): > 620 µM; TGI (SK-OV-3 ovarian): > 876 µM; TGI (SN12C renal): > 1000 µM; TGI (SNB-19 CNS): > 1000 µM; TGI (SW-620 colon): > 1000 µM

Question: What does the source list for c1ccc(-n2cnnc2-c2nsc3ccccc23)cc1?
Answer: TGI (COLO 205 colon): > 100 µM; TGI (HCT-116 colon): > 100 µM; TGI (HT29 colon): > 100 µM; TGI (NCI-H460 lung): > 100 µM; TGI (SF-539 CNS): > 100 µM; TGI (SK-MEL-2 melanoma): > 100 µM; TGI (SN12C renal): > 100 µM; TGI (SNB-19 CNS): > 100 µM; TGI (SW-620 colon): > 100 µM

Question: With C=C1CC23CCC4C(C)(C(=O)O)CCCC4(C)C2CCC1C3 (stereo not given) as the compound, how does the TGI (COLO 205 colon) read?
Answer: 39.5 µM

Question: And the TGI (HCT-116 colon)?
Answer: > 100 µM

Question: And the TGI (HT29 colon)?
Answer: > 100 µM

Question: What about the TGI (NCI-H460 lung) of the same compound?
Answer: 59.1 µM

Question: What about the TGI (SF-539 CNS) of the same compound?
Answer: > 100 µM

Question: What about the TGI (SK-MEL-2 melanoma) of the same compound?
Answer: > 100 µM

Question: And the TGI (SK-OV-3 ovarian)?
Answer: > 100 µM

Question: What about the TGI (SN12C renal) of the same compound?
Answer: > 100 µM

Question: And the TGI (SNB-19 CNS)?
Answer: > 100 µM

Question: What about the TGI (SW-620 colon) of the same compound?
Answer: > 100 µM

Question: O=[N+]([O-])c1ccc(/C=N\Nc2ccc([N+](=O)[O-])cn2)cc1 was tested. Which TGI (COLO 205 colon) did it give?
Answer: > 100 µM

Question: What about the TGI (HCT-116 colon) of the same compound?
Answer: > 100 µM

Question: What about the TGI (HT29 colon) of the same compound?
Answer: > 100 µM

Question: And the TGI (NCI-H460 lung)?
Answer: > 100 µM

Question: What about the TGI (SF-539 CNS) of the same compound?
Answer: 82.8 µM

Question: What about the TGI (SK-MEL-2 melanoma) of the same compound?
Answer: > 100 µM

Question: And the TGI (SK-OV-3 ovarian)?
Answer: > 100 µM

Question: And the TGI (SN12C renal)?
Answer: > 100 µM

Question: What about the TGI (SNB-19 CNS) of the same compound?
Answer: > 100 µM

Question: What about the TGI (SW-620 colon) of the same compound?
Answer: > 100 µM

Question: Which results are given for CCN(CC)C(=S)SC(=S)N(CC)CC?
Answer: TGI (COLO 205 colon): 45 µM; TGI (HCT-116 colon): > 58.3 µM; TGI (NCI-H460 lung): > 100 µM; TGI (SF-539 CNS): > 100 µM; TGI (SK-MEL-2 melanoma): > 100 µM; TGI (SK-OV-3 ovarian): > 100 µM; TGI (SN12C renal): > 100 µM; TGI (SNB-19 CNS): > 100 µM; TGI (SW-620 colon): > 100 µM

Question: For N=C(N)c1ccc(-c2ccc(-c3cncc4ccccc34)s2)cc1F, which GI50 (COLO 205 colon) is on record?
Answer: 1.87 µM

Question: And the TGI (COLO 205 colon)?
Answer: 3.94 µM

Question: And the GI50 (HT29 colon)?
Answer: 1.68 µM

Question: What about the TGI (HT29 colon) of the same compound?
Answer: 4.48 µM

Question: And the GI50 (SF-539 CNS)?
Answer: 1.6 µM

Question: And the TGI (SF-539 CNS)?
Answer: 3.04 µM

Question: What about the GI50 (SK-OV-3 ovarian) of the same compound?
Answer: 1.84 µM

Question: What about the TGI (SK-OV-3 ovarian) of the same compound?
Answer: 3.63 µM

Question: And the GI50 (SN12C renal)?
Answer: 1.85 µM

Question: What about the TGI (SN12C renal) of the same compound?
Answer: 3.65 µM

Question: What about the GI50 (SW-620 colon) of the same compound?
Answer: 1.69 µM

Question: What about the TGI (SW-620 colon) of the same compound?
Answer: 3.76 µM

Question: For O=C(/C=c1\oc(=O)/c(=C/C(=O)c2ccc(Cl)cc2)oc1=O)c1ccc(Cl)cc1, which TGI (COLO 205 colon) is on record?
Answer: > 100 µM

Question: What about the TGI (HCT-116 colon) of the same compound?
Answer: > 100 µM

Question: And the TGI (HT29 colon)?
Answer: > 100 µM

Question: What about the TGI (NCI-H460 lung) of the same compound?
Answer: > 100 µM

Question: And the TGI (SF-539 CNS)?
Answer: > 100 µM

Question: What about the TGI (SK-MEL-2 melanoma) of the same compound?
Answer: > 100 µM

Question: And the TGI (SK-OV-3 ovarian)?
Answer: > 100 µM

Question: What about the TGI (SN12C renal) of the same compound?
Answer: > 100 µM

Question: What about the TGI (SNB-19 CNS) of the same compound?
Answer: > 100 µM

Question: CC(C)=CCc1c(O)ccc2c1OC1c3ccc(O)c(CC=C(C)C)c3OCC21 (stereo not given) was tested. Which TGI (COLO 205 colon) did it give?
Answer: 33 µM

Question: And the TGI (HCT-116 colon)?
Answer: 18.3 µM

Question: And the TGI (HT29 colon)?
Answer: > 61.9 µM

Question: And the TGI (NCI-H460 lung)?
Answer: 16.1 µM

Question: What about the TGI (SF-539 CNS) of the same compound?
Answer: 23.9 µM

Question: And the TGI (SK-MEL-2 melanoma)?
Answer: 34.3 µM

Question: And the TGI (SK-OV-3 ovarian)?
Answer: 35.1 µM

Question: And the TGI (SN12C renal)?
Answer: 30.3 µM

Question: And the TGI (SNB-19 CNS)?
Answer: 27.6 µM

Question: And the TGI (SW-620 colon)?
Answer: 22.5 µM

Question: C=C(C)C(=O)OC1C(C(C)CCCO)=C(CO)CC2OC(=O)C(=C)C21 (stereo not given) was tested. Which TGI (COLO 205 colon) did it give?
Answer: 29.3 µM

Question: What about the TGI (HCT-116 colon) of the same compound?
Answer: 32.2 µM

Question: And the TGI (HT29 colon)?
Answer: 45.9 µM

Question: And the TGI (NCI-H460 lung)?
Answer: 37.8 µM

Question: And the TGI (SF-539 CNS)?
Answer: 58.9 µM

Question: What about the TGI (SK-MEL-2 melanoma) of the same compound?
Answer: 61.7 µM

Question: What about the TGI (SK-OV-3 ovarian) of the same compound?
Answer: 95.7 µM

Question: What about the TGI (SN12C renal) of the same compound?
Answer: 32.8 µM

Question: And the TGI (SNB-19 CNS)?
Answer: > 100 µM

Question: And the TGI (SW-620 colon)?
Answer: 28.8 µM

Question: With COc1cc(C(C)(C)C)cc(OC)c1C(O)(c1c(OC)cc(C(C)(C)C)cc1OC)c1c(OC)cc(C(C)(C)C)cc1OC as the compound, how does the GI50 (COLO 205 colon) read?
Answer: 0.188 µM

Question: And the TGI (COLO 205 colon)?
Answer: 0.34 µM

Question: And the GI50 (HCT-116 colon)?
Answer: 0.249 µM

Question: And the TGI (HCT-116 colon)?
Answer: 0.901 µM

Question: What about the GI50 (HT29 colon) of the same compound?
Answer: 0.224 µM

Question: And the TGI (HT29 colon)?
Answer: 0.877 µM

Question: And the GI50 (NCI-H460 lung)?
Answer: 0.288 µM

Question: What about the TGI (NCI-H460 lung) of the same compound?
Answer: 0.853 µM

Question: And the GI50 (SF-539 CNS)?
Answer: 0.342 µM

Question: And the TGI (SF-539 CNS)?
Answer: 1.22 µM

Question: What about the GI50 (SK-MEL-2 melanoma) of the same compound?
Answer: 0.325 µM

Question: What about the TGI (SK-MEL-2 melanoma) of the same compound?
Answer: 0.692 µM

Question: What about the GI50 (SW-620 colon) of the same compound?
Answer: 0.406 µM

Question: What about the TGI (SW-620 colon) of the same compound?
Answer: 1.55 µM

Question: Which TGI (COLO 205 colon) does the source give for C=C(C)C1CC2=C(O1)C(=O)c1ccccc1C2=O (stereo not given) here?
Answer: 37.4 µM

Question: What about the TGI (HT29 colon) of the same compound?
Answer: 38.4 µM

Question: And the TGI (NCI-H460 lung)?
Answer: 33.8 µM

Question: What about the TGI (SF-539 CNS) of the same compound?
Answer: 33.7 µM

Question: And the TGI (SK-OV-3 ovarian)?
Answer: > 100 µM

Question: And the TGI (SN12C renal)?
Answer: 43.5 µM

Question: And the TGI (SNB-19 CNS)?
Answer: 96.6 µM

Question: What about the TGI (SW-620 colon) of the same compound?
Answer: 48.4 µM
